Like-named read-outs stand apart in the source and are kept apart here.
Legend:
zebrafish α7 nAChR [1] = biological target: T1, zebrafish α7 nAChR (Danio rerio, UniProt Q800C7); assay: Agonist-evoked responses, two-electrode voltage clamp in Xenopus oocytes; format: cell-based; settings: for Activation of fish α7 nAChR: prototypical α7-selective agonists; for Emax: read-out: Imax; for Agonist type compared to ACh: α7
[2] = biological target: T2, zebrafish α3β4F106Y nAChR (Danio rerio, UniProt A0A0R4ISQ3+A0A8M1QHJ5, F140Y); assay: cell-based
zebrafish α3β4 nAChR [3] = biological target: T3, zebrafish α3β4 nAChR (Danio rerio, UniProt A0A0R4ISQ3+A0A8M1QHJ5); assay: Agonist-evoked responses, two-electrode voltage clamp in Xenopus oocytes; format: cell-based; settings: for Emax: read-out: Imax; for Agonist type compared to ACh: α3β4
zebrafish α4β2 nAChR [4] = biological target: T4, zebrafish α4β2 nAChR (Danio rerio, UniProt E7F4S7+Q0PJT8); assay: as above; format: cell-based; settings: for Activation of α4β2 receptors by probe concentration: 30 µM 4OH-GTS-21 and tropane, 300 µM choline; for Emax: read-out: Imax
[5] = test system: zebrafish heteromeric nAChR subtypes (α3β4, α1β1bεδ, α2β2, α4β2); format: cell-based, zebrafish (Danio rerio); settings: co-application, 30 µM 4OH-GTS-21 and tropane, 300 µM choline
zebrafish [6] = settings: previous work; cited from earlier work
zebrafish [7] = settings: cited from earlier work
[8] = biological target: T5, zebrafish muscle α1β1bεδ nAChR (Danio rerio, UniProt A2BG85+G1FMP8+Q75XT1+Q98880); settings: for EC50: peak current amplitude
[9] = biological target: T2, zebrafish α3β4F106Y nAChR
zebrafish α2β2 nAChR [10] = biological target: T6, zebrafish α2β2 nAChR (Danio rerio, UniProt A0ACM8Q9T8+E7F4S7); assay: cell-based
[11] = biological target: T5, zebrafish muscle α1β1bεδ nAChR; assay: cell-based; settings: read-out: Imax
[12] = test system: human and zebrafish α3β4 and α4β2 nAChR; format: cell-based; settings: α3β4 and α4β2, repeated application protocol, low concentration of mecamylamine
zebrafish α2β2 nAChR [13] = biological target: T6, zebrafish α2β2 nAChR; assay: cell-based; remark: listed apart in the source
zebrafish [14] = settings: cited from earlier work; remark: listed apart in the source
rat α3β4 nAChR = settings: rat α3β4, co-application of 100 µM ACh with 3 µM mecamylamine; cited from earlier work
zebrafish α2β2 nAChR [15] = biological target: T6, zebrafish α2β2 nAChR; settings: α2β2, ACh control after normal washout
zebrafish α3β4 nAChR [16] = biological target: T3, zebrafish α3β4 nAChR; assay: Inhibition of ACh-evoked responses by co-applied mecamylamine in Xenopus oocytes; format: cell-based
zebrafish α7 nAChR [17] = biological target: T1, zebrafish α7 nAChR; assay: cell-based
[18] = biological target: T5, zebrafish muscle α1β1bεδ nAChR; settings: for IC50: α1β1bεδ, co-application with 30 µM ACh
zebrafish [19] = settings: given 5 minutes before the task (not if 40 minutes prior); cited from earlier work
zebrafish α7 nAChR [20] = biological target: T1, zebrafish α7 nAChR; settings: α7, data not shown
zebrafish α4β2 nAChR [21] = biological target: T4, zebrafish α4β2 nAChR; settings: α4β2, ACh control after normal washout
human α7 nAChR = settings: read-out: EC50 for human α7; used as probe concentration; cited from earlier work
zebrafish [22] = settings: cited from earlier work; remark: listed apart in the source

## CC(=O)OCC[N+](C)(C)C [ACh, acetylcholine]
Zebrafish α7 nAChR [1]
  EC50: 39 ± 3 µM
[2]
  EC50: 134 ± 5 µM
Zebrafish α3β4 nAChR [3]
  EC50: 73 ± 3 µM

## COc1cc(O)ccc1/C=C1\CCCN=C1c1cccnc1 [4OH-GTS-21, 3-(4-hydroxy, 2-methoxybenzylidene)anabaseine]
Zebrafish α7 nAChR [1]
  Activation of fish α7 nAChR: activate
Zebrafish α4β2 nAChR [4]
  Activation of α4β2 receptors by probe concentration: evoked significant responses
[5]
  Inhibition of ACh-evoked responses of heteromeric nAChR subtypes: inhibited all of the heteromeric receptors

## CO[C@H]1CC=C2CCN3CCC4=C(CC(=O)OC4)[C@]23C1 [DHβE, dihydro-beta-erythroidine]
Zebrafish [6]
  Effect on nicotine-induced increase in swimming activity: blocked
Zebrafish [7]
  Effect on anxiolytic effects of nicotine: blocked

## O=c1cccc2n1C[C@@H]1CNC[C@H]2C1 [cytisine]
Zebrafish α7 nAChR [1]
  EC50: 15 ± 3 µM
  Emax: 116 ± 6%
  Agonist type compared to ACh: full agonist
[8]
  EC50: 460 ± 20 µM
Zebrafish α4β2 nAChR [4]
  Emax: 26 ± 1%
[9]; 100 µM cytisine, relative to 100 µM ACh control responses
  Relative amplitude of responses versus wild-type fish α3β4: significantly larger
[9]; expressed relative to respective ACh maximums
  Effect of the F106Y mutation on efficacy: no significant effect
Zebrafish α2β2 nAChR [10]
  EC50: 4.1 ± 0.3 µM
Zebrafish α2β2 nAChR [10]; read-out: Imax
  Emax: 9 ± 1%
Zebrafish α3β4 nAChR [3]
  EC50: 11 ± 1 µM
  Emax: 12 ± 0.2%
  Agonist type compared to ACh: relatively weak partial agonist
[11]
  Emax: 13 ± 0.3%

## CNC1(C)C2CCC(C2)C1(C)C (stereo not shown) [mecamylamine]
[12]
  Inhibition of fish versus human receptor subtypes: significantly greater (p < 0.01)
Zebrafish α2β2 nAChR [13]; Net charge IC50, α2β2, co-application with 30 µM ACh
  IC50: 3.5 ± 1.3 µM
Zebrafish α2β2 nAChR [13]; Peak current IC50, α2β2, co-application with 30 µM ACh
  IC50: 3 ± 0.7 µM
Zebrafish [14]
  Effect on nicotine-induced increase of dihydroxyphenylacetic acid: blocked
Rat α3β4 nAChR
  Residual inhibition of ACh control responses following washout: 60%
Zebrafish α2β2 nAChR [15]
  Mecamylamine concentration giving significant (>25%) residual inhibition: ≥ 300 nM
Zebrafish α3β4 nAChR [16]; Net charge IC50, α3β4, co-application with 100 µM ACh
  IC50: 0.05 ± 0.01 µM
Zebrafish α3β4 nAChR [16]; Peak current IC50, α3β4, co-application with 100 µM ACh
  IC50: 0.6 ± 0.1 µM
Zebrafish α3β4 nAChR [16]; α3β4, 3 µM mecamylamine
  Reversibility of inhibition: rapidly reversible
Zebrafish α7 nAChR [17]; Net charge IC50, α7, co-application with 60 µM ACh
  IC50: 13 ± 3 µM
Zebrafish α7 nAChR [17]; Peak current IC50, α7, co-application with 60 µM ACh
  IC50: 28 ± 11 µM
[18]; muscle-type receptors
  Reversibility of inhibition: readily reversible
[18]; read-out: Net charge IC50
  IC50: 0.6 ± 0.07 µM
[18]; read-out: Peak current IC50
  IC50: 1.8 ± 0.21 µM
Zebrafish [19]
  Effect on nicotine-induced improvement in spatial learning task: blocked this nicotine-induced improvement
Zebrafish α7 nAChR [20]
  Reversibility of inhibition: readily reversible
Zebrafish α4β2 nAChR [21]
  Mecamylamine concentration giving significant (>25%) residual inhibition: ≥ 30 nM
Zebrafish [7]; 200 mg/l mecamylamine
  Effect on anxiolytic effect of nicotine: blocked

## C[N+](C)(C)CCO [choline]
Zebrafish α7 nAChR [1]
  Activation of fish α7 nAChR: activate
Human α7 nAChR
  EC50: 300 µM
Zebrafish α4β2 nAChR [4]
  Activation of α4β2 receptors by probe concentration: evoked significant responses
[5]
  Inhibition of ACh-evoked responses of heteromeric nAChR subtypes: relatively ineffective

## CN1CCC[C@H]1c1cccnc1 [nicotine]
Zebrafish [6]
  Swimming activity: increases swimming activity
Zebrafish α7 nAChR [1]
  EC50: 27 ± 6 µM
  Emax: 75 ± 4%
  Agonist type compared to ACh: full agonist
Zebrafish [14]
  Dihydroxyphenylacetic acid levels: increases dihydroxyphenylacetic acid levels
[8]
  Agonist type compared to ACh: partial agonist
  EC50: 140 ± 50 µM
Zebrafish α4β2 nAChR [4]
  Emax: 70 ± 10%
Zebrafish α4β2 nAChR [4]; α4β2
  Agonist type compared to ACh: partial agonist
Zebrafish α3β4 nAChR [3]
  EC50: 13 ± 6 µM
  Emax: 17 ± 2%
  Agonist type compared to ACh: partial agonist
Zebrafish [22]; high doses
  Performance in delayed spatial alternation task: impaired
Zebrafish [22]; low doses (100 mg/l in the water)
  Performance in delayed spatial alternation task: improved performance
[11]
  Emax: 13 ± 3%
Zebrafish [7]; 100 mg/l
  Effect in fish model of anxiety: anxiolytic

## CN1[C@@H]2CCC[C@H]1CC2 [tropane]
Zebrafish α7 nAChR [1]
  Activation of fish α7 nAChR: activate
Zebrafish α4β2 nAChR [4]
  Activation of α4β2 receptors by probe concentration: evoked significant responses
[5]
  Inhibition of ACh-evoked responses of heteromeric nAChR subtypes: effective at inhibiting the neuronal heteromeric receptor subtypes

## CCN1C[C@]2(COC(=O)c3ccccc3N3C(=O)C[C@H](C)C3=O)CC[C@H](OC)[C@@]34[C@@H]5C[C@H]6[C@H](OC)[C@@H]5[C@](O)(C[C@@H]6OC)[C@@](O)([C@@H](OC)[C@H]23)[C@@H]14 [MLA, methyllycaconitine]
Zebrafish [6]
  Effect on nicotine-induced increase in swimming activity: blocked
Zebrafish [7]
  Effect on anxiolytic effects of nicotine: blocked

From PMC3372685 (Biochemical Pharmacology, 2012)
